Data as given in patent US20220031680A1, “Donecopride As Neuroprotective Agent In the Treatment of Neurodegenerative Diseases” (priority 2018, published 2022).

Test system: dopaminergic TH-positive neurons injured with MPP+
Assay: Survival and neurite network of TH neurons in primary mesencephalic culture injured with MPP+
Assay type: cell-based, rat
Details: MPP+ 4 μM 48 h; 1 h pre-incubation
Protocol: The aim of the present study was to investigate the neuroprotective effect of MR36014 and MR33583 (at 4 concentrations) on dopaminergic TH-positive neurons injured with MPP^+. The test compounds were pre-incubated for 1 hour before MPP^+ application (4 μM for 48 h). The neuroprotective effect (survival and neurite network) of test compounds was investigated. In addition, the effect on the cytoplasmic alpha-synuclein accumulation was studied.
Rat dopaminergic neurons were cultured as described by Callizot et al. (2019) PLoS One 14:e0215277 and Visanji et al. (2008) FASEB J. 22:2488-2497. Briefly, pregnant female rat (Wistar) of 15 days of gestation were killed using a deep anesthesia with CO2 chamber and a cervical dislocation. The midbrains obtained from 15-day-old rat embryos (Janvier, France) were dissected under a microscope. […]
Midbrains were dissociated by trypsinisation for 20 min at 37° C. […] Viable cells were counted in a Neubauer cytometer using the trypan blue exclusion test. […]
Briefly, on day 6 of culture, the medium was removed, and fresh medium was added, with or without test compounds and with or without MPP^+ for 48 hours diluted in control medium. 6 wells per condition were assessed. […]
Test compounds were tested in 96-well plate (n=6 culture wells per condition). […] The following conditions were assessed: […]

Row | Structure (SMILES) | concentrations protecting the neurite network of TH neurons | concentrations improving TH neuron survival
1 | COc1cc(N)c(F)cc1C(=O)CCC1CCN(CC2CCCCCC2)CC1 [MR36014] | all investigated doses | –
2 | COc1cc(N)c(F)cc1C(=O)CCC1CCN(CC2CCCC2)CC1 [MR33583] | – | 100 nM
